Where no end group is shown, it is not given here. [ ]: non-standard residue; d: D form. Dmt = Cc1cc(O)cc(C)c1C[C@H](N)C(=O)O
What was measured:
[1] = test system: equine sperm; conditions: Vidament et al, 2005; cited from earlier work
[2] = test system: bull sperm; test: Frozen-thaw longevity of bull sperm with cell penetrating peptides, CASA at 0, 2 and 4 hrs (Example 8); assay type: cell-based
Protocol: Semen was collected from four beef bulls using electro-ejaculator. Immediately after collection, 0.5 μM SS31 or mTP4 was added per ml semen. Concentration of up to 20 μM SS31 or mTP4 were also used. Semen transported to Cryobiology Lab where semen was analyzed with CASA. Semen was further diluted with egg yolk extender to 50 million per ml, packaged in straws and frozen following a freezing curve developed in our lab. Frozen semen with and without SS31 was thawed and CASA analysis was conducted at 0 (<15 min), 2 and 4 hrs. Structural characters, i.e. plasma membrane and acrosome, were also analyzed using FITC-PNA and PI assay with flow cytometer, as described in Examples 4 and 5.

[3] = test system: bull sperm; test: Motility of fresh bull sperm after exposure to cell penetrating peptides, CASA (Example 8); assay type: cell-based; conditions: CPPs added at 37° C., FIG. 13
Protocol: Semen was collected from four bulls using electro-ejaculator. Semen was analyzed with Computer Assisted Semen Analysis (CASA) and washed (2×) with tris citric acid buffer (TB). The washed semen was diluted to 2.2 million/ml with TB. Semen (46 μl) was mixed with 4 μl of 100 μM solution of SS31 or mTP4. TB buffer alone was added in the control sample. […] After incubation, sperm motility was analyzed by CASA and then cells were treated with 2.5 μl propidium iodide (50 μg/ml) or 3 μl SYBR-14. Sperm were fixed with 10 μl of 10%-formaldehyde and another 500 μl PBS was added before flowcytometry analysis.

| Compound | concentration in a preservation medium reported to be toxic to equine sperm [1] | Percent decline motility over time ([2]; 4 hr post-thaw, vs control and mTP4 groups, FIG. 15) | post-thaw total sperm motility and progressive motility vs control ([2]; semen frozen in egg yolk extender, 0, 2 and 4 hrs post-thaw, FIG. 14) | sperm motility and progressive motility as compared control [3] |
| --- | --- | --- | --- | --- |
| OCC(O)CO [Glycerol, glycerol] | greater than 3.5% |  |  |  |
| D-Arg-DMT-Lys-Phe [SS31] |  | lesser | better | improved |
| DMT-D-MWWRRSRTNSLRYT ([Dmt][dM]WWRRSRTNSLRYT) [mTP4] |  |  |  | improved |
